The NIST ThermoML archive (doi:10.1021/je030133a)

Experiment: xn = mol fraction of the nth substance listed
Settings: 101.3 kPa, Liquid

ClC(Cl)(Cl)Cl [tetrachloromethane] + C1COCCO1
Settings | mass density, 303.15 K [kg/m3] | mass density, 308.15 K [kg/m3] | mass density, 313.15 K [kg/m3] | viscosity, 303.15 K [mPa·s] | viscosity, 308.15 K [mPa·s] | viscosity, 313.15 K [mPa·s]
x2 = 0 | 1580.6 | 1575.7 | 1570.9 | 0.8689 | 0.8307 | 0.807
x2 = 0.1116 | 1520.6 | 1517.3 | 1513.2 | 0.945 | 0.8954 | 0.8454
x2 = 0.2204 | 1462.3 | 1458.6 | 1455.1 | 0.9938 | 0.9391 | 0.8848
x2 = 0.3265 | 1405.3 | 1401.1 | 1396.9 | 1.036 | 0.9771 | 0.9244
x2 = 0.4299 | 1349 | 1344.8 | 1340.9 | 1.073 | 1.01 | 0.9531
x2 = 0.5307 | 1294.3 | 1290.5 | 1286.9 | 1.11 | 1.044 | 0.9892
x2 = 0.6291 | 1240.9 | 1236.2 | 1232.5 | 1.136 | 1.066 | 1.008
x2 = 0.7252 | 1187.4 | 1182.4 | 1177.9 | 1.145 | 1.066 | 0.9996
x2 = 0.7724 | 1161.1 | 1155.9 | 1150.9 | 1.145 | 1.063 | 0.9971
x2 = 0.819 | 1134.4 | 1128.5 | 1123.2 | 1.139 | 1.058 | 0.9881
x2 = 0.865 | 1107.7 | 1101.6 | 1096 | 1.131 | 1.052 | 0.9836
x2 = 0.9105 | 1081 | 1074.7 | 1069.2 | 1.123 | 1.05 | 0.9785
x2 = 0.9555 | 1052.6 | 1046.5 | 1041.2 | 1.117 | 1.046 | 0.9667

ClC(Cl)(Cl)Cl [tetrachloromethane] + CCCCO
Settings | mass density, 303.15 K [kg/m3] | mass density, 308.15 K [kg/m3] | mass density, 313.15 K [kg/m3] | viscosity, 303.15 K [mPa·s] | viscosity, 308.15 K [mPa·s] | viscosity, 313.15 K [mPa·s]
x1 = 0.0954 | 885 | 876 | 873.9 | 2.028 | 1.698 | 1.498
x1 = 0.1918 | 964.8 | 955.5 | 953 | 1.708 | 1.444 | 1.293
x1 = 0.2891 | 1044.5 | 1034.7 | 1031.7 | 1.496 | 1.276 | 1.172
x1 = 0.3875 | 1123.5 | 1113.8 | 1110.1 | 1.356 | 1.157 | 1.069
x1 = 0.4869 | 1201.2 | 1191.8 | 1187.6 | 1.248 | 1.096 | 1.038
x1 = 0.5874 | 1277.3 | 1268.5 | 1264.2 | 1.157 | 1.052 | 0.9981
x1 = 0.6889 | 1352.2 | 1344.8 | 1340.9 | 1.069 | 1.004 | 0.9502
x1 = 0.7401 | 1389.9 | 1382.7 | 1378.8 | 1.025 | 0.9705 | 0.9211
x1 = 0.7915 | 1427.1 | 1420.2 | 1415.9 | 1.005 | 0.9552 | 0.8947
x1 = 0.8432 | 1463.6 | 1457.8 | 1454.2 | 0.9778 | 0.9211 | 0.8727
x1 = 0.8952 | 1501.2 | 1495.7 | 1491.8 | 0.9554 | 0.8975 | 0.8612
x1 = 0.9475 | 1538.9 | 1534.3 | 1530.5 | 0.9164 | 0.8787 | 0.8346
x1 = 1 | 1580.6 | 1575.7 | 1571.3 | 0.8689 | 0.8307 | 0.8072
